Key:
A498 = assay: NCI one-dose screen; type: cell-based; conditions: Homo sapiens; A498, 10 µM; read-out: Growth Percent
How it was run: (§1)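 The NCI ran this in vitro antitumor screen on 59 human cancer lines from nine tissue subpanels, with each compound applied once at 10 µM. Growth percent is reported.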

CAKI-1 = assay: NCI one-dose screen; type: cell-based; conditions: Homo sapiens; CAKI-1, 10 µM; read-out: Growth Percent
How it was run: as §1

CCRF-CEM = assay: NCI one-dose screen; type: cell-based; conditions: Homo sapiens, read-out: Growth Percent
How it was run: as §1

COLO 205 = assay: NCI one-dose screen; type: cell-based; conditions: Homo sapiens; COLO 205, 10 µM; read-out: Growth Percent
How it was run: as §1

DU-145 = assay: NCI one-dose screen; type: cell-based; conditions: Homo sapiens; DU-145, 10 µM; read-out: Growth Percent
How it was run: as §1

EKVX = assay: NCI one-dose screen; type: cell-based; conditions: Homo sapiens, read-out: Growth Percent
How it was run: as §1

HL-60(TB) = assay: NCI one-dose screen; type: cell-based; conditions: Homo sapiens, read-out: Growth Percent
HT29 = assay: NCI one-dose screen; type: cell-based; conditions: Homo sapiens, HT-29; HT29, 10 µM; read-out: Growth Percent
How it was run: as §1

K-562 = assay: NCI one-dose screen; type: cell-based; conditions: Homo sapiens, K562; K-562, 10 µM; read-out: Growth Percent
How it was run: as §1

KM12 = assay: NCI one-dose screen; type: cell-based; conditions: Homo sapiens; KM12, 10 µM; read-out: Growth Percent
How it was run: as §1

M14 = assay: NCI one-dose screen; type: cell-based; conditions: Homo sapiens; M14, 10 µM; read-out: Growth Percent
How it was run: as §1

MDA-MB-231/ATCC = assay: NCI one-dose screen; type: cell-based; conditions: Homo sapiens, read-out: Growth Percent
How it was run: as §1

MOLT-4 = assay: NCI one-dose screen; type: cell-based; conditions: Homo sapiens; MOLT-4, 10 µM; read-out: Growth Percent
How it was run: as §1

NCI-H23 = assay: NCI one-dose screen; type: cell-based; conditions: Homo sapiens; NCI-H23, 10 µM; read-out: Growth Percent
How it was run: as §1

NCI-H460 = assay: NCI one-dose screen; type: cell-based; conditions: Homo sapiens; NCI-H460, 10 µM; read-out: Growth Percent
How it was run: as §1

OVCAR-4 = assay: NCI one-dose screen; type: cell-based; conditions: Homo sapiens; OVCAR-4, 10 µM; read-out: Growth Percent
How it was run: as §1

SF-295 = assay: NCI one-dose screen; type: cell-based; conditions: Homo sapiens; SF-295, 10 µM; read-out: Growth Percent
How it was run: as §1

SF-539 = assay: NCI one-dose screen; type: cell-based; conditions: Homo sapiens; SF-539, 10 µM; read-out: Growth Percent
How it was run: as §1

SK-MEL-5 = assay: NCI one-dose screen; type: cell-based; conditions: Homo sapiens; SK-MEL-5, 10 µM; read-out: Growth Percent
How it was run: as §1

SK-OV-3 = assay: NCI one-dose screen; type: cell-based; conditions: Homo sapiens; SK-OV-3, 10 µM; read-out: Growth Percent
How it was run: as §1

SN12C = assay: NCI one-dose screen; type: cell-based; conditions: Homo sapiens, read-out: Growth Percent
How it was run: as §1

SNB-19 = assay: NCI one-dose screen; type: cell-based; conditions: Homo sapiens; SNB-19, 10 µM; read-out: Growth Percent
How it was run: as §1

TK-10 = assay: NCI one-dose screen; type: cell-based; conditions: Homo sapiens; TK-10, 10 µM; read-out: Growth Percent
How it was run: as §1

UO-31 = assay: NCI one-dose screen; type: cell-based; conditions: Homo sapiens; UO-31, 10 µM; read-out: Growth Percent
How it was run: as §1

HCT-116 = assay: NCI one-dose screen; type: cell-based, human; conditions: HCT-116, 10 µM; for activity at 10 µM: Homo sapiens, read-out: Growth Percent
Protocol: (§2) For screening of anticancer properties, all the developed compounds were chosen by the (NCI) for in-vitro antitumor evaluation. The assay was carried out using 59 human cancer cell lines obtained from nine tumour subpanels (breast, ovarian, melanoma, leukaemia, renal, CNS, lung, prostate, and colon cancer cell lines). Compounds were assessed at a 10 µM concentration. […] Also, hybrids 4a, 4b, 4e, 4i and 4j produced significant anti-proliferative effect in several cancer cells, particularly in leukaemia (RPMI-8226) and colon (HCT116) cells with growth percent of 47.87, −14.59, −24.56, −24.42, −15.84, −9.74, −53.36, −10.26, −31.29, and −39.51%, respectively.
(§3) The method description for NCI anticancer screening is provided in detail in the standard NCI-60 testing protocol.

RPMI-8226 = assay: NCI one-dose screen; type: cell-based, human; conditions: RPMI-8226, 10 µM; for activity at 10 µM: Homo sapiens, read-out: Growth Percent
Protocol: as §2, §3

[1] = tested on: 59 human cancer cell lines; assay: NCI one-dose screen, whole panel; type: cell-based; conditions: for activity at 10 µM: Homo sapiens, mean over the panel, read-out: Mean Growth Percent
Protocol: as §2, §3

SMILES | activity at 10 µM (A498) | activity at 10 µM (CAKI-1) | activity at 10 µM (CCRF-CEM) | activity at 10 µM (COLO 205) | activity at 10 µM (DU-145) | activity at 10 µM (EKVX) | activity at 10 µM (HL-60(TB)) | activity at 10 µM (HT29) | activity at 10 µM (K-562) | activity at 10 µM (KM12) | activity at 10 µM (M14) | activity at 10 µM (MDA-MB-231/ATCC) | activity at 10 µM (MOLT-4) | activity at 10 µM (NCI-H23) | activity at 10 µM (NCI-H460) | activity at 10 µM (OVCAR-4) | activity at 10 µM (SF-295) | activity at 10 µM (SF-539) | activity at 10 µM (SK-MEL-5) | activity at 10 µM (SK-OV-3) | also measured
Cc1ccc(/C=C/C(=O)c2ccc(-n3cc(CN4CCN(c5cc6c(cc5F)c(=O)c(C(=O)O)cn6C5CC5)CC4)nn3)cc2)cc1 [Compound 4f, (E)-1-cyclopropyl-6-fluoro-4-oxo-7-(4-((1-(4-(3-(p-tolyl)acryloyl)phenyl)-1H-1,2,3-triazol-4-yl)methyl)piperazin-1-yl)-1,4-dihydroquinoline-3-carboxylic acid] | 57.4% | 64.4% | 56.3% | 107% | 78.9% | 90.7% | 94.3% | 91.7% | 51.5% | 88.8% | 87% | 80.1% | 67.7% | 85.4% | 85.8% | 91.4% | 87.6% | 83% | 91.1% | 78.4% | activity at 10 µM (SN12C): 44.9%; activity at 10 µM (SNB-19): 86.9%; activity at 10 µM (TK-10): 91.4%; activity at 10 µM (UO-31): 65.7%; activity at 10 µM (HCT-116): 7.82%; activity at 10 µM (RPMI-8226): 34.2%; activity at 10 µM [1]: 80.3%
COc1ccc(/C=C/C(=O)c2ccc(-n3cc(CN4CCN(c5cc6c(cc5F)c(=O)c(C(=O)O)cn6C5CC5)CC4)nn3)cc2)cc1 [Compound 4g, (E)-1-Cyclopropyl-6-fluoro-7-(4-((1-(4-(3-(4-methoxyphenyl)acryloyl)phenyl)-1H-1,2,3-triazol-4-yl)methyl)piperazin-1-yl)-4-oxo-1,4-dihydroquinoline-3-carboxylic acid] | 60.5% | 75.5% | 74.6% | 97.1% | 90.8% | 96.6% | 99% | 78.2% | 67.5% | 86.4% | 88.7% | 88.1% | 81.7% | 85.4% | 82.2% | 94.4% | 90.7% | 92.8% | 81.6% | 84.6% | activity at 10 µM (SN12C): 58.2%; activity at 10 µM (SNB-19): 84.1%; activity at 10 µM (TK-10): 92.4%; activity at 10 µM (UO-31): 65.1%; activity at 10 µM (HCT-116): 2.68%; activity at 10 µM (RPMI-8226): 11.5%; activity at 10 µM [1]: 78.8%
CN(C)c1ccc(/C=C/C(=O)c2ccc(-n3cc(CN4CCN(c5cc6c(cc5F)c(=O)c(C(=O)O)cn6C5CC5)CC4)nn3)cc2)cc1 [Compound 4h, (E)-1-cyclopropyl-7–(4-((1–(4-(3-(4-(dimethylamino)phenyl)acryloyl)phenyl)-1H-1,2,3-triazol-4-yl)methyl)piperazin-1-yl)-6-fluoro-4-oxo-1,4-dihydroquinoline-3-carboxylic acid] | 64.5% | 69.8% | 84.3% | 101% | 96.3% | 96% | 98.8% | 98.9% | 86% | 84.1% | 87.4% | 75.5% | 86% | 81.5% | 89.7% | 94.8% | 86.9% | 73.6% | 86.2% | 84.7% | activity at 10 µM (SN12C): 67.7%; activity at 10 µM (SNB-19): 86.4%; activity at 10 µM (TK-10): 104%; activity at 10 µM (UO-31): 61.9%; activity at 10 µM (HCT-116): 8.04%; activity at 10 µM (RPMI-8226): 44.3%; activity at 10 µM [1]: 82%
COc1ccc(/C=C/C(=O)c2ccc(-n3cc(CN4CCN(c5cc6c(cc5F)c(=O)c(C(=O)O)cn6C5CC5)CC4)nn3)cc2)cc1OC [Compound 4i, (E)-1-cyclopropyl-7-(4-((1-(4-(3–(3,4-dimethoxyphenyl)acryloyl)phenyl)-1H-1,2,3-triazol-4-yl)methyl)piperazin-1-yl)-6-fluoro-4-oxo-1,4-dihydroquinoline-3-carboxylic acid] | 68.2% | 67.8% | 44% | 98.2% | 83.2% | 96.6% | 85.9% | 29.6% | 42.5% | 42.6% | 59% | 67.2% | 64.2% | 78.7% | 77.9% | 88% | 94.9% | 50.8% | 69% | 76.9% | activity at 10 µM (SN12C): 32.6%; activity at 10 µM (SNB-19): 67.7%; activity at 10 µM (TK-10): 104%; activity at 10 µM (UO-31): 54.9%; Growth Percent (HCT-116): -31.29%; activity at 10 µM (HCT-116): -31.3%; activity at 10 µM (RPMI-8226): -24.4%; Growth Percent (RPMI-8226): -24.42%; activity at 10 µM [1]: 59.5%
COc1cc(/C=C/C(=O)c2ccc(-n3cc(CN4CCN(c5cc6c(cc5F)c(=O)c(C(=O)O)cn6C5CC5)CC4)nn3)cc2)cc(OC)c1OC [Compound 4j, (E)-1-cyclopropyl-6-fluoro-4-oxo-7–(4-((1–(4-(3-(3,4,5-trimethoxyphenyl)acryloyl)phenyl)-1H-1,2,3-triazol-4-yl)methyl)piperazin-1-yl)-1,4-dihydroquinoline-3-carboxylic acid] | 54.4% | 60% | 3.05% | 60.9% | 45.8% | 80% | 45% | 4.76% | 7.81% | 8.81% | 28.2% | 55.4% | 10.5% | 50.6% | 53.1% | 73.7% | 67.5% | 7.09% | 50.9% | 67.5% | activity at 10 µM (SN12C): 14.9%; activity at 10 µM (SNB-19): 44.7%; activity at 10 µM (TK-10): 80%; activity at 10 µM (UO-31): 43.5%; Growth Percent (HCT-116): -39.51%; activity at 10 µM (HCT-116): -39.5%; activity at 10 µM (RPMI-8226): -15.8%; Growth Percent (RPMI-8226): -15.84%; activity at 10 µM [1]: 33.7%; Growth Percent ([1]; majority of cancer cell lines, 10 µM): 67.46 to −39.69%
